In PMC5038265 (Antimicrobial Agents and Chemotherapy, 2016):
In brackets after ≈: the same amount, converted by molar mass. Like-named read-outs stand apart in the source and are kept apart here.

Key:
[1] = test system: multidrug-resistant M. tuberculosis isolates; experiment: microbe, parasite or virus in culture; assay type: cell-based; conditions: for MIC: Mycobacterium tuberculosis, read-out: In vitro activity (MIC)
[2] = test system: M. tuberculosis H37Rv; assay type: cell-based

| Compound | cross-resistance against multidrug-resistant isolates [1] | MIC ([1]; H37RV, M. tuberculosis H37Rv) [µg/mL] | MIC [1] [µg/mL] | In vitro activity (MIC) ([1]; listed as Cmp13) [µg/mL] | Resistance frequency at 4× MIC [2] | Resistance frequency at 10× MIC [2] |
| --- | --- | --- | --- | --- | --- | --- |
| CCOc1ccc(Cl)c2c1B(O)O[C@@H]2CN [Compound 13] | did not show any cross-resistance | 0.015 (≈ 0.0621 µM) | 0.015 (≈ 0.0621 µM) | 0.030 |  |  |
| CCOc1ccc(Br)c2c1B(O)O[C@@H]2CN [Compound 14] | did not show any cross-resistance | 0.03 (≈ 0.105 µM) | 0.03 (≈ 0.105 µM) |  | 4.6 × 10^−6 | 3.9 × 10^−6 |
| NNC(=O)c1ccncc1 [Isoniazid, isoniazid, reference compound] |  | 0.06 (≈ 0.438 µM) | > 0.12 |  |  | 1.8 × 10^−5 |
| COc1c(N2C[C@@H]3CCCN[C@@H]3C2)c(F)cc2c(=O)c(C(=O)O)cn(C3CC3)c12 [Moxifloxacin, moxifloxacin, reference compound] |  |  |  |  | 1.7 × 10^−7 | 1.1 × 10^−8 |
